Assay [1] concerns Ad5. Briefly: Ad5 genome replication assay (cell-based QPCR) in A549 cells. The note with it: Human adenovirus sp., A549, 72 h, read-out: Ad5 qPCR EC50 (μM). The protocol: Compounds of the present invention were tested for potency against Ad5 in an Ad5 genome replication assay, a cell-based QPCR assay of Ad5 genome replication in A549 cells, a human lung carcinoma cell line. Serotype of human Ad5, used in this replication assay can also replicate in a NZW rabbit model of adenoviral ocular keratitis.
EC50 values (μM) for inhibition of adenoviral replication were determined by QPCR. Briefly, 10,000 cultured A549 cells were inoculated with 25,000 pfu/well for 3 hrs in 2% FBS F12-K A549 culture media. Following inoculation, A549 cells were treated with log unit dilutions of compound of Formula I (˜10 μM thru˜10 pM) in 10% FBS F12-K culture media with 0.3% DMSO for an additional 3 days. Cell viability was assessed with Alamar Blue (10 μl/well for 2 hrs; fluorescence Ex353; Em595 nm). Plates were washed 3 times with 125 μl PBS, cell lysates were prepared for QPCR analysis using Cells to SNP kit (Life Technologies). Ad5 genome levels per cell were determined with RNaseP and Ad5 hexon Taqman Assays (Life Technologies). EC50, the concentration that inhibited Ad5 genome replication formation by 50%, was estimated from plots of Ad5 genomes/cell vs. compound concentration.

The test system of the next assay is Ad3. Briefly: Plaque reduction assay in A549 cells, Ad3. Type of assay: cell-based. The note with it: unidentified adenovirus, 168 h, approximately 7 d, read-out: Adenovirus Serotype EC50 (μg/mL) Ad3. The protocol:
(§1) Compounds of the present invention were tested for potency against AdV serotypes Ad3, Ad4, Ad5, Ad7a, Ad8, Ad19, and Ad37 in a plaque reduction assay, a cell-based assay of AdV replication. Ad8, Ad19, and Ad37 are the serotypes most commonly associated with epidemic keratoconjunctivitis (EKC). Ad3, Ad4, and Ad7a are serotypes most commonly associated with follicular conjunctivitis and serotype Ad5 can replicate in the NZW rabbit model of adenoviral ocular keratitis. Ad3, Ad4, Ad5, Ad7a, Ad8, and Ad19 were recovered at the Charles T. Campbell Ophthalmic Microbiology Laboratory from patients presenting with typical adenoviral ocular disease. No clinical isolates of Ad37 were available, so the ATCC (American Type Culture Collection, Manassas, Va.) reference strain of Ad37 was used.
(§2) EC50 values (μg/ml) for inhibition of adenoviral replication were determined by plaque reduction assay. Briefly, cultured A549 cells were inoculated with approximately 100 pfu of the indicated adenovirus serotype. Inoculated cells were overlaid with methylcellulose medium containing Compound 2 at 100, 10, 1, 0.1, 0.01, and 0.001 μg/ml, and incubated at 37° C./5% CO2 for approximately 7 d. Plates were stained with gentian violet, and plaques were counted in a 25× dissecting microscope. IC50, the concentration that inhibited plaque formation by 50%, was estimated from plots of mean plaque count vs. concentration.

The next assay concerns Ad4. Kind of assay: Plaque reduction assay in A549 cells, Ad4. Type of assay: cell-based. The settings on record: unidentified adenovirus, 168 h, approximately 7 d, read-out: Adenovirus Serotype EC50 (μg/mL) Ad4. Here is the method:
as §1, §2

The test system of assay [2] is Ad5. Kind of assay: Plaque reduction assay in A549 cells, Ad5. The class given is cell-based. The note with it: unidentified adenovirus, A549, 168 h, read-out: Adenovirus Serotype EC50 (μg/mL) Ad5. Here is the method: as §1, §2
Another assay concerns Ad7a. Kind of assay: Plaque reduction assay in A549 cells, Ad7a. The settings on record: unidentified adenovirus, 168 h, approximately 7 d, read-out: Adenovirus Serotype EC50 (μg/mL) Ad7a. The class given is cell-based. Here is the method:
as §1, §2

The next assay deals with Ad8. Briefly: Plaque reduction assay in A549 cells, Ad8. Type of assay: cell-based. The settings on record: unidentified adenovirus, A549, 168 h, read-out: Adenovirus Serotype EC50 (μg/mL) Ad8. The protocol: as §1, §2
Another assay has as its system Ad19. Kind of assay: Plaque reduction assay in A549 cells, Ad19. Type of assay: cell-based. The settings on record: unidentified adenovirus, 168 h, approximately 7 d, read-out: Adenovirus Serotype EC50 (μg/mL) Ad19. The protocol: as §1, §2
The subject of another assay is Ad37. Kind of assay: Plaque reduction assay in A549 cells, Ad37. The class given is cell-based. The settings on record: unidentified adenovirus, 168 h, approximately 7 d, ATCC reference strain, read-out: Adenovirus Serotype EC50 (μg/mL) Ad37. The protocol: as §1, §2
For a further assay, the system named is AdV serotype 5 (Ad5). The settings on record: Harvey et al., Antiviral Res. 82:1-11, 2009; read-out: EC50, inhibition of replication of AdV serotype 5 (Ad5); cited from earlier work.
The next assay has as its system polyoma virus SV40. The note with it: Harvey et al., Antiviral Res. 82:1-11, 2009; read-out: EC50, inhibition of replication of polyoma virus SV40; cited from earlier work.
Assay [3] relates to human papillomavirus (HPV). The settings on record: Harvey et al., Antiviral Res. 82:1-11, 2009; read-out: EC50, inhibition of replication of human papillomavirus (HPV); cited from earlier work.
Another assay has as its system Epstein-Barr virus (EBV). The note with it: Harvey et al., Antiviral Res. 82:1-11, 2009; read-out: EC50, inhibition of replication of Epstein-Barr virus (EBV); cited from earlier work.

Structures are written as SMILES. ≈ marks a conversion by molar mass, not a printed value.

In the case of `CC(C)C[C@H]1c2[nH]c3ccc(Cl)cc3c2CCN1C(=O)CCN1CC[C@H](F)C1` [Compound 35, 1-((S)-6-chloro-1-isobutyl-3,4-dihydro-1H-pyrido[3,4-b]indol-2(9H)-yl)-3-((S)-3-fluoropyrrolidin-1-yl)propan-1-one], the EC50 with Ad5 [1] is 0.1 to 1 µM; in the assay with Ad3, 0.1 to 1 µg/mL (≈ 0.246 to 2.46 µM); in the assay on Ad4, > 1 µg/mL; in the assay with Ad5 [2], 0.1 to 1 µg/mL (≈ 0.246 to 2.46 µM); in the assay on Ad7a, 0.1 to 1 µg/mL (≈ 0.246 to 2.46 µM); in the assay with Ad8, 0.1 to 1 µg/mL (≈ 0.246 to 2.46 µM). Further, the EC50 in the assay on Ad19 and in the assay on Ad37 was 0.1 to 1 µg/mL (≈ 0.246 to 2.46 µM) each time.

Regarding `CC(C)C[C@H]1c2[nH]c3ccc(Cl)cc3c2CCN1C(=O)C1CN(C2CC2)C1` [Compound 92, (S)-(6-chloro-1-isobutyl-3,4-dihydro-1H-pyrido[3,4-b]indol-2(9H)-yl)(1-cyclopropylazetidin-3-yl)methanone], the EC50 with Ad5 [1] was 0.1 to 1 µM; in the assay with Ad3 it was > 1 µg/mL; in the assay on Ad4, > 1 µg/mL; with Ad5 [2] it was 0.1 to 1 µg/mL (≈ 0.259 to 2.59 µM); with Ad7a it was 0.1 to 1 µg/mL (≈ 0.259 to 2.59 µM); in the assay with Ad8, > 1 µg/mL. For the same compound, the EC50 with Ad19 and in the assay with Ad37 was 0.1 to 1 µg/mL (≈ 0.259 to 2.59 µM) each time.

As to `CC(C)C[C@H]1c2[nH]c3ccc(Cl)cc3c2CCN1C(=O)CCN1CCC(F)(F)CC1` [Compound 6, (S)-1-(6-chloro-1-isobutyl-3,4-dihydro-1H-pyrido[3,4-b]indol-2(9H)-yl)-3-(4,4-difluoropiperidin-1-yl)propan-1-one], the EC50 in the assay on Ad5 [1] is < 0.1 µM; with Ad3 it was < 0.1 µg/mL; in the assay with Ad4, 0.1 to 1 µg/mL (≈ 0.228 to 2.28 µM); in the assay with Ad5 [2], < 0.1 µg/mL; in the assay with Ad7a, < 0.1 µg/mL; in the assay on Ad8, < 0.1 µg/mL. The EC50 with Ad19 and in the assay with Ad37 was < 0.1 µg/mL throughout.

As to `CC(C)C[C@H]1c2[nH]c3ccc(Cl)cc3c2CCN1C(=O)CCC1CCCCC1` [Compound 43, (S)-1-(6-chloro-1-isobutyl-3,4-dihydro-1H-pyrido[3,4-b]indol-2(9H)-yl)-3-cyclohexylpropan-1-one], the EC50 with Ad5 [1] is < 0.1 µM; in the assay on Ad3 it was 0.1 to 1 µg/mL (≈ 0.249 to 2.49 µM); in the assay with Ad4 it was 0.1 to 1 µg/mL (≈ 0.249 to 2.49 µM); in the assay on Ad5 [2], < 0.1 µg/mL; with Ad7a it was < 0.1 µg/mL; in the assay with Ad8, < 0.1 µg/mL. Also, the EC50 in the assay on Ad19 and in the assay on Ad37 was < 0.1 µg/mL in each case.

As for `CC(C)C[C@H]1c2[nH]c3ccc(Cl)cc3c2CCN1C(=O)C1CCN(C2CC2)CC1` [Compound 93, (S)-(6-chloro-1-isobutyl-3,4-dihydro-1H-pyrido[3,4-b]indol-2(9H)-yl)(1-cyclopropylpiperidin-4-yl)methanone], the EC50 was 0.1 to 1 µM with Ad5 [1]; 0.1 to 1 µg/mL (≈ 0.242 to 2.42 µM) in the assay on Ad3; 0.1 to 1 µg/mL (≈ 0.242 to 2.42 µM) in the assay on Ad4; 0.1 to 1 µg/mL (≈ 0.242 to 2.42 µM) in the assay on Ad5 [2]; 0.1 to 1 µg/mL (≈ 0.242 to 2.42 µM) in the assay on Ad7a; 0.1 to 1 µg/mL (≈ 0.242 to 2.42 µM) in the assay on Ad8. Further, the EC50 with Ad19 and in the assay on Ad37 was 0.1 to 1 µg/mL (≈ 0.242 to 2.42 µM) in each case.

As for `CC(C)C[C@H]1c2[nH]c3ccc(Cl)cc3c2CCN1C(=O)CCN1CCN(CC(F)F)CC1` [Compound 73, (S)-1-(6-chloro-1-isobutyl-3,4-dihydro-1H-pyrido[3,4-b]indol-2(9H)-yl)-3-(4-(2,2-difluoroethyl)piperazin-1-yl)propan-1-one], the EC50 in the assay on Ad5 [1] lay within 0.1 to 1 µM; in the assay with Ad3 it was 0.1 to 1 µg/mL (≈ 0.214 to 2.14 µM); in the assay with Ad4, 0.1 to 1 µg/mL (≈ 0.214 to 2.14 µM); with Ad5 [2], 0.1 to 1 µg/mL (≈ 0.214 to 2.14 µM); in the assay with Ad7a, 0.1 to 1 µg/mL (≈ 0.214 to 2.14 µM); in the assay with Ad8, 0.1 to 1 µg/mL (≈ 0.214 to 2.14 µM). In addition, the EC50 in the assay with Ad19 and with Ad37 was > 1 µg/mL each time.

With `CC(C)C[C@H]1c2[nH]c3ccc(Br)cc3c2CCN1C(=O)C1CCN(C2CC2)CC1` [Compound 97, (S)-(6-bromo-1-isobutyl-3,4-dihydro-1H-pyrido[3,4-b]indol-2(9H)-yl)(1-cyclopropylpiperidin-4-yl)methanone], the EC50 with Ad5 [1] was < 0.1 µM; in the assay with Ad3, 0.1 to 1 µg/mL (≈ 0.218 to 2.18 µM); in the assay on Ad4, > 1 µg/mL; with Ad5 [2], < 0.1 µg/mL; in the assay with Ad7a it was 0.1 to 1 µg/mL (≈ 0.218 to 2.18 µM); in the assay on Ad8, < 0.1 µg/mL. Moreover, the EC50 in the assay on Ad19 and with Ad37 was 0.1 to 1 µg/mL (≈ 0.218 to 2.18 µM) throughout.

For the compound `O=C(N[C@@H]1CCCc2c1[nH]c1ccc(Cl)cc21)c1ccccn1` [GSK-983], the EC50 (with AdV serotype 5 (Ad5); in the assay with polyoma virus SV40; in [3]; in the assay on Epstein-Barr virus (EBV)) was 5 to 20 nM throughout.

On to `CC(C)C[C@H]1c2[nH]c3ccc(Cl)cc3c2CCN1C(=O)C1CN(CCC(F)(F)F)C1` [Compound 47, (S)-(6-chloro-1-isobutyl-3,4-dihydro-1H-pyrido[3,4-b]indol-2(9H)-yl)(1-(3,3,3-trifluoropropyl)azetidin-3-yl)methanone], for which the EC50 in the assay with Ad5 [1] lay in the range of 0.1 to 1 µM; in the assay on Ad3 it was 0.1 to 1 µg/mL (≈ 0.226 to 2.26 µM); in the assay with Ad4, 0.1 to 1 µg/mL (≈ 0.226 to 2.26 µM); in the assay with Ad5 [2] it was 0.1 to 1 µg/mL (≈ 0.226 to 2.26 µM); in the assay on Ad7a it was 0.1 to 1 µg/mL (≈ 0.226 to 2.26 µM); in the assay on Ad8 it was 0.1 to 1 µg/mL (≈ 0.226 to 2.26 µM). Also, the EC50 with Ad19 and with Ad37 was 0.1 to 1 µg/mL (≈ 0.226 to 2.26 µM) throughout.

Take `CC(C)C[C@H]1c2[nH]c3ccc(Cl)cc3c2CCN1C(=O)CNC1CC1` [Compound 91, (S)-1-(6-chloro-1-isobutyl-3,4-dihydro-1H-pyrido[3,4-b]indol-2(9H)-yl)-2-(cyclopropylamino)ethanone]: the EC50 is < 0.1 µM in the assay on Ad5 [1]; 0.1 to 1 µg/mL (≈ 0.278 to 2.78 µM) in the assay on Ad3; 0.1 to 1 µg/mL (≈ 0.278 to 2.78 µM) in the assay with Ad4; < 0.1 µg/mL with Ad5 [2]; 0.1 to 1 µg/mL (≈ 0.278 to 2.78 µM) in the assay on Ad7a; 0.1 to 1 µg/mL (≈ 0.278 to 2.78 µM) with Ad8. Besides, the EC50 in the assay on Ad19 and in the assay on Ad37 was 0.1 to 1 µg/mL (≈ 0.278 to 2.78 µM) each time.
